Biological target: CYP105A1 R84A (Streptomyces griseolus, UniProt P18326, R84A)
Details: diclofenac 4′-hydroxylation, Lineweaver-Burk and Dixon plots
Procedure: Ethanol concentration in the final reaction solution was 0.8%. […] After each interval, the reaction was stopped by an addition of 50 μl of acetonitrile into each reaction solution. The solution was centrifuged at 10,000 x g for 15 min, and the resultant supernatant was analyzed by ultra performance liquid chromatography (UPLC) under the following conditions: apparatus, H-Class (Waters Co.); column, ACQUITY UPLC BEH C18 (1.7 μm, 2.1 × 100 mm) (Waters Co.); UV detection, 276 nm; column temperature, 40 °C; flow rate, 0.7 ml/min; injection volume, 10 μl; mobile phase, a linear gradient of 25 to 43% acetonitrile in aqueous solution containing 0.1% trifluoroacetic acid (TFA) for 3 min, followed by 43 to 58% acetonitrile in aqueous solution containing 0.1% TFA for 1 min, followed by 58 to 100% acetonitrile in aqueous solution containing 0.1% TFA for 2 min. […] Two separate experiments were performed to obtain the kobs value for 30 μM diclofenac in 5 μM miconazole. Three separate experiments were performed to obtain all other kobs values. Lineweaver-Burk plot and Dixon plot were prepared from the obtained kobs for each reaction.

Structure (SMILES) | Type of inhibition
Clc1ccc(COC(Cn2ccnc2)c2ccc(Cl)cc2Cl)c(Cl)c1 (centres unmarked) [Miconazole] | competitive inhibition
N#C/C(=C1/SCC(c2ccccc2Cl)S1)n1ccnc1 (centres unmarked) [Lanoconazole] | noncompetitive inhibition
